Experimental data: article PMC7321072, “Bioactive Potential of Extracts of Labrenzia aggregata Strain USBA 371, a Halophilic Bacterium Isolated from a Terrestrial Source” (Molecules, 2020)
Where two headings read alike, the source gives them in different places.

What was measured:
Type in all cases: cell-based
[1] = system: K562 (myeloid acute leukemia); experiment: Cytotoxic activity, neutral red assay, K562
Description: (§1) The isolated compounds were resuspended in dimethyl sulfoxide (DMSO) to a final concentration of 25 mg/mL (stock solution), subsequent dilutions between 250 and 31 μg/mL were used for cytotoxicity assays. The cytotoxic activity was determined by neutral red assay, initially against the adherent cell lines 4T1 (mouse mammary tumor) and MCF-7 (human mammary adenocarcinoma) followed by H17 y TSA (murine breast cancer), MES SA PGP (+) y MES SA PGP (–) (human uterus sarcome), B16 (murine melanoma), MCA 38 (murine colon), 3T3 (murine fibroblats) y K562-ATCC, U937 y HL-60/MX2 (myeloid acute leukemia cell line) as described by Díaz-Cárdenas et al., 2017 [15]. When cultures reached a confluence of 80%, cells were passaged and counted in a Neubauer chamber. Cell viability was estimated in triplicate using the trypan blue assay. The percentage of viability was calculated as absorbance of the vehicle/absorbance of the treatment per 100. […] IC50 values were calculated with three or four parameter nonlinear regression curves using GraphPad Prism software (GraphPad Software, Inc., San Diego, CA, USA). […] The selectivity index was calculated using the formula: IC50 Fibroblasts/IC50 tumor cell. […]
(§2) The solvent used in the reconstitution of the extract (DMSO) was evaluated as a negative control for each test in the same volume as the extracts. […]

[2] = system: MCF-7 (human mammary adenocarcinoma); experiment: Cytotoxic activity, neutral red assay, MCF-7; details: mean ± SEM
Description: (§3) The isolated compounds were resuspended in dimethyl sulfoxide (DMSO) to a final concentration of 25 mg/mL (stock solution), subsequent dilutions between 250 and 31 μg/mL were used for cytotoxicity assays. The cytotoxic activity was determined by neutral red assay, initially against the adherent cell lines 4T1 (mouse mammary tumor) and MCF-7 (human mammary adenocarcinoma) followed by H17 y TSA (murine breast cancer), MES SA PGP (+) y MES SA PGP (–) (human uterus sarcome), B16 (murine melanoma), MCA 38 (murine colon), 3T3 (murine fibroblats) y K562-ATCC, U937 y HL-60/MX2 (myeloid acute leukemia cell line) as described by Díaz-Cárdenas et al., 2017 [15]. When cultures reached a confluence of 80%, cells were passaged and counted in a Neubauer chamber. Cell viability was estimated in triplicate using the trypan blue assay. The percentage of viability was calculated as absorbance of the vehicle/absorbance of the treatment per 100. Inhibitory concentration 50 (IC50) values were defined as the concentration of the extracts that generated 50% inhibition of tumor cell growth. IC50 values were calculated with three or four parameter nonlinear regression curves using GraphPad Prism software (GraphPad Software, Inc., San Diego, CA, USA). IC50 values are presented as the mean ± standard error of mean (SEM). The selectivity index was calculated using the formula: IC50 Fibroblasts/IC50 tumor cell. A potential against tumor cell lines was considered when the selectivity was greater than 1.
(§4) The solvent used in the reconstitution of the extract (DMSO) was evaluated as a negative control for each test in the same volume as the extracts. Doxorubicin at a maximum concentration of 5 μM was used as a positive control.

[3] = system: TSA (murine breast cancer); experiment: Cytotoxic activity, neutral red assay, TSA; details: mean ± SEM, read-out: Cytotoxic Activity of Fractions IC50
Description: as §1, §2

[4] = system: 3LL (lung cancer); experiment: Cytotoxic activity, neutral red assay, 3LL; details: mean ± SEM
[5] = system: MES–SA/DX5P-Pgp (+) (human uterus sarcome); experiment: Cytotoxic activity, neutral red assay, MES-SA/DX5 Pgp (+)
Description: as §1, §2

[6] = system: MCA 38 (murine colon); experiment: Cytotoxic activity, neutral red assay, MCA 38; details: mean ± SEM
Description: as §1, §2

[7] = system: 3T3 (murine fibroblast); experiment: Cytotoxic activity, neutral red assay, 3T3 normal fibroblasts; details: 3T3, murine fibroblast (normal cells); mean ± SEM; read-out: Cytotoxic Activity of Fractions IC50
Description: as §1, §2

[8] = system: U937 (myeloid acute leukemia); experiment: Cytotoxic activity, neutral red assay, U937
Description: as §1, §2

[9] = system: 4T1 H17 (murine breast cancer, high ALDH expression); experiment: Cytotoxic activity, neutral red assay, 4T1 H17; details: mean ± SEM
Description: as §1, §2

[10] = system: B16 (murine melanoma); experiment: Cytotoxic activity, neutral red assay, B16; details: mean ± SEM, read-out: Cytotoxic Activity of Fractions IC50
Description: as §1, §2

[11] = system: 4T1 (mouse mammary tumor); experiment: Cytotoxic activity, neutral red assay, 4T1; details: mean ± SEM
Description: as §3, §4

[12] = listed as compound 1, read-out: Cytotoxic Activity of Fractions IC50
[13] = read-out: Cytotoxic Activity of Fractions IC50

Row | Compound | cytotoxic activity (in words) [1] | IC50 [2] [µM] | IC50 ([2]; listed as compound 1) [µM] | IC50 [3] [µM] | IC50 [4, 12] [µM] | IC50 [4, 13] [µM] | Selectivity Index (SI) ([5]; IC50 fibroblasts (3T3)/IC50 MES-SA/DX5 Pgp (+)) | IC50 ([5]; MES-SA/DX5 Pgp (+), human uterus sarcoma, mean ± SEM, read-out: Cytotoxic Activity of Fractions IC50) [µM] | IC50 [6, 12] [µM] | IC50 [6, 13] [µM] | IC50 [7] [µM] | cytotoxic activity (in words) [8] | IC50 [9, 12] [µM] | IC50 [9, 13] [µM] | IC50 [10] [µM] | IC50 [11] [µM] | IC50 ([11]; listed as compound 1) [µM] | IC50 ([2]; listed as compound 2) [µM] | IC50 ([11]; listed as compound 2) [µM]
1 | O=C1N[C@@H](Cc2ccc(O)cc2)C(=O)N2CCC[C@@H]12 [Compound 1, cyclo (L-Pro-L-Tyr)] | no activity was detected | 87.7 ± 2.32 | < 88 | 197 ± 4.18 | < 51.7 | 51.7 ± 0.55 | 1.39 | 225.3 ± 1.23 | < 40 | 29.9 ± 1.55 | 314 ± 3.41 | no activity was detected | < 40 | 40.4 ± 1.94 | 80.9 ± 3.67 | 57.1 ± 2.11 | < 88 | – | –
2 | O=C1N[C@@H](Cc2ccc(O)cc2)C(=O)N[C@H]1Cc1ccccc1 [Compound 2, cyclo (L-Tyr-L-Phe)] | – | 890.5 ± 3.45 | – | – | – | – | – | – | – | – | – | – | – | – | – | 875.9 ± 5.14 | – | > 250 | > 250
